{"source": "patent US20060172987A1", "about": "(DSM IP Assets B.V., priority 2003, published 2006)", "assay_type_in_all_cases": "physicochemical", "key": {"[1]": {"experiment": "Free water content by dynamic vapour sorption (adsorption isotherm, VTI-SGA 100)", "details": "equilibrium relative humidity of 30%, 25° C.", "text": "The free water content of a sample can be determined by dynamic vapour sorption. The underlying principle is that the weight of the sample is monitored while it is contacted with air having a preconditioned relative humidity. As a result of water take-up or water release the sample weight will change until the equilibrium situation has been established. The sample weight in this equilibrium situation is the sample weight corresponding to the equilibrium relative humidity, the latter being the relative humidity of the preconditioned air with which the sample is contacted. By repeating this procedure for different values of the equilibrium relative humidity, the sample weight can be determined as a function of the equilibrium relative humidity. […]\nAs used herein, the free water content measured at an equilibrium relative humidity of 30% and at a temperature of 25° C. is in particular defined as ((w30-w10)/w10)*100%, wherein […]\nThe free water content, including the values for w30 and w10 are preferably determined using dynamic vapour sorption, for instance using a VTI-SGA 100 vapour sorption analyser. […]\nAdsorption isotherms were determined using dynamic vapour sorption, using a VTI-SGA 100 vapour sorption analyser. […]"}, "[2]": {"experiment": "Particle size distribution by laser diffraction (Malvern particle sizer 2600 C)", "text": "The d10 and d50 are known ways for indicating a particle size distribution, d50 referring to the value for the particle size such that 50 vol. % of the crystals has a particle size smaller than said value. The d50 is also referred to as average volume-based grain size. Likewise, d10 refers to the value for the particle size such that 10 vol. % of the crystals has a particle size smaller than said value. A preferred way for determining d10 and d50 is laser diffraction, preferably using Malvern equipment. A suitable apparatus for […] determining d10 and d50 is a Malvern particle sizer 2600 C obtainable from Malvern Instruments Ltd., Malvern UK, using an objective of f=300 mm and a beam length of is 14.30 mm. A polydisperse analysis model may advantageously be used.\nThe particle size distribution (including d10 and d50) was determined using a Malvern particle sizer 2600 C with objective f=300 mm, malvern sample measurement unit PS1 and a Malvern dry powder feeder PS 64. The beam length was 14.30 mm. A polydisperse analysis model was used."}, "[3]": {"experiment": "Bulk density (USP 24, method I)", "details": "for Bulk dens.: crystalline powder as obtained, trihydrate", "text": "The crystalline powder according according to this aspect of the invention has improved flow properties, without having to be subjected to processes such as granulation, compactation, agglomeration or aggregation, has good colour properties, good stability and a high dissolution rate. If it would still be desired to subject the crystalline powder to processes such as granulation, compactation, agglomeration or aggregation, and the like, applying these processes is facilitated due to the improved flow properties of the crystalline powder according to this aspect of the invention. Moreover, an increased quantity of crystalline powder can be fed into a capsule of a given size. The bulk density is preferably determined according to USP 24, method I, (page 1913). Preferably, of the crystalline powder has a bulk density higher than 0.46 g/ml, preferably higher than 0.5 g/ml, more preferably higher than 0.55 g/ml. This further improves the flow properties. Moreover, an increased bulk density is advantageous as crystalline powder may be fed into a certain volume, for instance a capsule. There is no specific upper limit for the bulk density. The bulk density may be less than 0.8 g/ml, for instance less than 0.7 g/ml."}, "[4]": {"experiment": "Tapped density (USP 24, method II)", "details": "for Tap. dens.: crystalline powder as obtained, trihydrate", "text": "In a preferred embodiment, the crystalline powder according to the invention has a tapped density higher than 0.6 g/ml, preferably higher than 0.7, more preferably higher than 0.8 g/ml. An increased tapped density improves the flow properties. Moreover, an increased tapped density is advantageous as more products may be fed into a certain volume, for instance a capsule. There is no specific upper limit for the tapped density. The tapped density may be less than 1.2 g/ml, for instance less than 1.1 g/ml, for instance less than 1.0 g/ml. The tapped density is preferably determined according to USP 24, method II, (page 1914)."}, "[5]": {"details": "crystalline powder as obtained, trihydrate"}, "[6]": {"details": "overheads fraction after air jet sieving, 75 μm screen, 10 minutes"}}, "data": [{"molecule": "CC1(C)S[C@@H]2[C@H](NC(=O)[C@H](N)c3ccc(O)cc3)C(=O)N2[C@H]1C(=O)O", "note": "[Comp. A, amoxicillin, reference compound]", "values": [{"measurement": "Free water content at ERH = 30%", "setting": "[1]", "result": 0.11, "unit": "wt. %"}, {"measurement": "d10", "setting": "[2]; crystalline powder as obtained", "result": 2.7, "unit": "μm"}, {"measurement": "d50", "setting": "[2]; crystalline powder as obtained", "result": 8.3, "unit": "μm"}]}, {"molecule": "CC1(C)S[C@@H]2[C@H](NC(=O)[C@H](N)c3ccc(O)cc3)C(=O)N2[C@H]1C(=O)O.O.O.O", "note": "[Ex. I, amoxicillin trihydrate]", "values": [{"measurement": "Free water content at ERH = 30%", "setting": "[1]", "result": 0.05, "unit": "wt. %"}, {"measurement": "d10", "setting": "[2]; [5]", "result": 11.4, "unit": "μm"}, {"measurement": "d50", "setting": "[2]; [5]", "result": 43.1, "unit": "μm"}, {"measurement": "Bulk dens.", "setting": "[3]", "result": 0.51, "unit": "g/mL"}, {"measurement": "Tap. dens.", "setting": "[4]", "result": 0.73, "unit": "g/mL"}]}, {"molecule": "CC1(C)S[C@@H]2[C@H](NC(=O)[C@H](N)c3ccc(O)cc3)C(=O)N2[C@H]1C(=O)O.O.O.O", "note": "[Example V, amoxicillin trihydrate]", "values": [{"measurement": "d10", "setting": "[2]; [5]", "result": 17.4, "unit": "μm"}, {"measurement": "d50", "setting": "[2]; [5]", "result": 66.3, "unit": "μm"}, {"measurement": "Bulk dens.", "setting": "[3]", "result": 0.25, "unit": "g/mL"}, {"measurement": "Tap. dens.", "setting": "[4]", "result": 0.47, "unit": "g/mL"}]}, {"molecule": "CC1(C)S[C@@H]2[C@H](NC(=O)[C@H](N)c3ccc(O)cc3)C(=O)N2[C@H]1C(=O)O.O.O.O", "note": "[Example VI, amoxicillin trihydrate]", "values": [{"measurement": "d10", "setting": "[2]; [5]", "result": 19, "unit": "μm"}, {"measurement": "d50", "setting": "[2]; [5]", "result": 61, "unit": "μm"}, {"measurement": "d10", "setting": "[2]; [6]", "result": 36, "unit": "μm"}, {"measurement": "d50", "setting": "[2]; [6]", "result": 86, "unit": "μm"}, {"measurement": "Bulk dens.", "setting": "[3]", "result": 0.58, "unit": "g/mL"}, {"measurement": "bulk density", "setting": "[3]; [6]", "result": 0.59, "unit": "g/mL"}, {"measurement": "Tap. dens.", "setting": "[4]", "result": 0.79, "unit": "g/mL"}, {"measurement": "tapped density", "setting": "[4]; [6]", "result": 0.74, "unit": "g/mL"}]}]}
